Source: PMC6128908, “Potent PDZ-Domain PICK1 Inhibitors that Modulate Amyloid Beta-Mediated Synaptic Dysfunction” (Scientific Reports, 2018)
Values joined by “and” are separate entries in the source; they are usually repeats but may differ in a detail not shown here. Equal entries are not always repeated. Where two headings read alike, the source gives them in different places.

How the values were obtained:
PICK1 = PICK1 (Homo sapiens, UniProt Q9NRD5); experiment: PICK1 competition (displacement) assay with tracer BIO424; conditions: for fold more potent than the unsubstituted quinoline: relative to 1u;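 for all read-outs here: in vitro displacement assay with baculovirus-expressed, truncated dimeric PICK1 missing its final 59 residues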
Chain of PICK1 (Q9NRD5 1-356): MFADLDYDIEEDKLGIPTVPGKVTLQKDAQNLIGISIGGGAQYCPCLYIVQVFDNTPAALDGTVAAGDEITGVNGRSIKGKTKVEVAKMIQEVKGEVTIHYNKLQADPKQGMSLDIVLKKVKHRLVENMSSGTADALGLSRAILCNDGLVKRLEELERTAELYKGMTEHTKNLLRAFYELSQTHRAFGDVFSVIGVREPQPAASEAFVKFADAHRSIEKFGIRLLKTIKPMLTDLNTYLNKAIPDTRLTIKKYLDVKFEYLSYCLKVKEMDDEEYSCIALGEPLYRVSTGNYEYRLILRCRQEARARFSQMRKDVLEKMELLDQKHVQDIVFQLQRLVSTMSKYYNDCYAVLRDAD
Procedure: (§1) Fluorescence polarization (FP) and competition binding assays were used to determine PDZ binding affinities and selectivity of compounds as described in Alfonso et al.[20]. Briefly, a fixed concentration (5 nM) of Fluorescein isothiocyanate-labeled peptides comprising the C-terminal amino acids of GluA2 (875–883) and N-methyl-D-aspartate receptor subunit 2B (1474–1482) was used. Binding FP assays were carried out using increasing concentrations of recombinant full-length PICK1, postsynaptic density 95 (PSD95) PDZ 1–2, or Shank3 PDZ, and normalized by subtracting the tracer-only background.
Two recombinant PICK1 constructs were used in this study. […] A truncated, dimeric form of PICK1 lacking the last 59 residues was expressed in baculovirus and purified to homogeneity for use in the in vitro displacement assay. In general, both proteins were purified by Nickel chromatograpy followed by size exclusion chromatography.

GRIP [1] = experiment: PDZ selectivity counter-screen against GRIP; assay type: binding; conditions: data not shown
Text: Having addressed the potency issue for this tool, we then looked into how selective this compound series was for PICK1 over other closely related PDZ domains. Since the ligand GluA2 recognizes both PICK1 and GRIP we were unsure of whether we could get a selective compound. GRIP (6 PDZ domain-containing protein) is the most closely related PDZ domain to PICK1. PSD95 ([…]) and Shank (a single PDZ domain scaffolding molecule), are also important to counter-screen as they are also located in neurons and could be considered a liability if they were inhibited (Supplemental Fig. 3). […] The selectivity observed for compound 1o was also observed for compound 1z[20].

Shank3 PDZ = molecular target: T1, Shank3 PDZ (Homo sapiens, UniProt Q9BYB0); experiment: Fluorescence polarization selectivity assay, FITC-labeled GKAP peptide; assay type: binding; conditions: Supplemental Fig. 3D
T1 construct: Human Shank3 PDZ domain (residues 663–757); made in house; host or cells: E. coli
T1 sequence (Q9BYB0 646-740 limits assumed): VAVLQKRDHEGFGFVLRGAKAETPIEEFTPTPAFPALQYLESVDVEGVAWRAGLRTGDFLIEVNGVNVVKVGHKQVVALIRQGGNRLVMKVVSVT
Procedure: as §1

CA1 pyramidal neurons = experiment: Long term depression, whole cell recording in hippocampal slices; assay type: cell-based; conditions: 4 µM internally, low frequency stimulation, wild-type mice hippocampal slices
Procedure: Adult mice aged 8 to 9 weeks were decapitated using a guillotine and sliced at the first cervical vertebra. A cut was made through the skin in the middle of the scalp and the skull plate. The skull plate was separated and the brain was removed, and immediately submerged in iced-cold oxygenated Dissection Buffer (211 mM Sucrose, 2.6 mM KCl, 26 mM NaHCO3, 1.25 mM NaH2PO4, 5 mM MgCl2, 0.5 mM CaCl2, and 10 mM glucose) for 2 minutes. The brain was placed on an ice-cold cutting station and the brain cut along the longitudinal cerebral fissure to separate the two hemispheres. Hemispheres were placed in iced-cold oxygenated Dissection Buffer andand cerebellum was pulled away to reveal the hippocampus. The two hemispheres were arranged so that the hippocampi faced each other like two columns and the whole structure was glued onto a mounting plate, and slices were sectioned at 400 µm thickness and transferred to a holding chamber with oxygenated Recovery Buffer (124 mM NaCl, 3 mM KCl, 26 mM NaHCO3, 1.25 mM NaH2PO4, 2 mM MgSO4, 4 mM CaCl2, 10 mM glucose, and 1 mM kynurenic acid). Slices were allowed to recover for 1–1.5 h at room temperature before electrophysiology experiments. Whole-Cell current-clamp measurements on hippocampal CA1 pyramidal neurons were carried out at 32 to 33 °C. The cells were held at −60 mV potential and schaffer collateral fibers were stimulated. […]

Solubility comparison = assay type: physicochemical; conditions: compared with compound 1z
GRIP [2] = conditions: cited from earlier work
PK properties in rats = assay type: in vivo
Procedure: We next investigated the PK properties of compound 1z in rats to explore if it represented an appropriate in vivo tool compound. […] Several other compounds within this series were tested for brain penetration and were likewise unable to cross the blood brain barrier.

[3] = tested on: surface GluA2 in cultured hippocampal neurons; experiment: Surface GluA2 immunostaining in cultured hippocampal neurons; assay type: cell-based, mouse
Procedure: Experiments were conducted in accordance with and received approval from the Institutional Animal Care and Use Committees at Biogen Inc. The experiments were carried out in accordance with guidelines laid down by the NIH regarding the care and use of animals for experimental procedures. Primary hippocampal cultures were prepared from embryonic day 18 rodent brains as described previously. Cells were plated on coverslips coated with poly-D-lysine (30 µg/mL) and laminin (2 µg/mL) at a density of 70, 000 cells per well in 12-well plates. […] Embryonic neuronal cultures were prepared from a minimum of three independent pregnant mice on separate days in all of the studies described, and at least 13 neurons were analyzed for each experimental group. […]
Confocal images of immunostained neurons were obtained using a confocal microscope objective (LSM 710, Zeiss) with sequential acquisition settings at a resolution of 1024 × 1024 pixels. […] All analysis and quantifications were carried out using MetaMorph image analysis software (Universal Imaging Corporation). Dendrites from experimental groups were randomly selected and carefully traced, and the average intensity of fluorescence staining was determined for the traced regions. Intensity measurements are expressed in arbitrary units of fluorescence per square area. Acquisition and quantification of images was blinded. […]

PSD95 PDZ 1-2 = molecular target: T2, PSD95 PDZ 1-2 (Homo sapiens, UniProt P78352); conditions: cited from earlier work
T2 construct: domains 1–2 in tandem; aminoacids 61–249; 8XHis-TEV; made in house; host or cells: E. coli
T2 sequence (P78352 61-249): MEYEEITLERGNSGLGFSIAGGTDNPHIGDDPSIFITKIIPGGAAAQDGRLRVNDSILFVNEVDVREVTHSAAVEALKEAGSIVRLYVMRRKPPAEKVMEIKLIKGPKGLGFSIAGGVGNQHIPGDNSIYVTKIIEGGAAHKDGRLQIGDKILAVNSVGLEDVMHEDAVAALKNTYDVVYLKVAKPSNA

[4] = tested on: AMPA receptor-dependent calcium influx in hippocampal neurons; experiment: Calcium mobilization assay (FLIPR), Aβ42-treated neurons; assay type: cell-based, mouse; conditions: neurons treated with Aβ42 for 24 hours, 40 μM s-AMPA stimulation
Procedure: Synthetic Aβ42 hexafluoroisopropanol peptide was prepared to the stock concentration of 200 μM by adding 10 μL dimethylsulfoxide to 100 μg of Aβ42 hexafluoroisopropanol pellet and incubating for 30 min at room temperature with occasional mixing. […] The solution was kept at room temperature for 2 h and then used for experiments.
Mouse hippocampal neurons from wild type E16–18 animals were isolated and cultured for 13 days in vitro in Neurobasal media with B27 Supplement, Glutamax, and penicillin/streptomycin (Invitrogen). Neuron cultures were then treated with Aβ in the absence or presence of PICK1 inhibitorsfor 24 hours. Calcium influx was measured using the FLIPR Calcium 4 Assay (Molecular Devices). The cells were loaded with dye for 1 hour at 37 °C and then stimulated with 40 μM s-AMPA (Sigma). Fluorescent recordings were taken using the FLIPR Tetra (Molecular Devices). Baseline measurements before AMPA stimulation were recorded and fluorescent intensity measurements were taken for roughly 3 minutes during and after stimulation. Calcium influx was calculated as the area under the curve and plotted using PRISM GraphPad software.

[5] = rat, in vivo, 5 mg/kg, suspension (CMC/Tween)

| Structure (SMILES) | IC50 (PICK1; IC50, BIO424 as tracer) | further results |
| --- | --- | --- |
| CC(C)[C@H](NC(=O)C1(c2ccccc2)CCN(C(=O)[C@@H]2CCCN2C(=O)OC(C)(C)C)CC1)C(=O)O [1a] | 19000 nM and 18900 nM | – |
| O=C(O)[C@H](CC1CC1)NC(=O)C1(c2ccc(C(F)(F)F)cc2)CCN(c2cc(Br)cc3cccnc23)CC1 [1aa] | 75 nM | – |
| O=C(O)[C@H](CC1CC1)NC(=O)C1(c2ccc(C(F)(F)F)cc2)CCN(c2cc(C(F)(F)F)cc3cccnc23)CC1 [1ab] | 104 nM | – |
| COc1cc(N2CCC(C(=O)N[C@@H](CC3CC3)C(=O)O)(c3ccc(C(F)(F)F)cc3)CC2)c2ncccc2c1 [1ac] | 563 nM | – |
| O=C(O)[C@H](CC1CC1)NC(=O)C1(c2ccc(C(F)(F)F)cc2)CCN(c2cc(OC(F)(F)F)cc3cccnc23)CC1 [1ad] | 2300 nM | – |
| CC(C)[C@H](NC(=O)C1(C2CCCCC2)CCN(C(=O)[C@@H]2CCCN2C(=O)OC(C)(C)C)CC1)C(=O)O [1b] | 17400 nM | – |
| CC(C)[C@H](NC(=O)C1(N2CCOCC2)CCN(C(=O)[C@@H]2CCCN2C(=O)OC(C)(C)C)CC1)C(=O)O [1c] | ~175000 nM | – |
| CC(C)[C@H](NC(=O)C1(Cc2ccccc2)CCN(C(=O)[C@@H]2CCCN2C(=O)OC(C)(C)C)CC1)C(=O)O [1d] | 20600 nM | – |
| CC(C)[C@H](NC(=O)C1(c2ccc(Br)cc2)CCN(C(=O)[C@@H]2CCCN2C(=O)OC(C)(C)C)CC1)C(=O)O [1e] | 4290 nM | – |
| CC(C)[C@H](NC(=O)C1(c2ccc(C(F)(F)F)cc2)CCN(C(=O)[C@@H]2CCCN2C(=O)OC(C)(C)C)CC1)C(=O)O [1f] | 1560 nM and 1600 nM | – |
| CC(C)(C)OC(=O)N1CCC[C@H]1C(=O)N1CCC(C(=O)NCC(=O)O)(c2ccc(Br)cc2)CC1 [1g] | > 175000 nM | – |
| C[C@H](NC(=O)C1(c2ccc(Br)cc2)CCN(C(=O)[C@@H]2CCCN2C(=O)OC(C)(C)C)CC1)C(=O)O [1h] | 12100 nM and 12000 nM | – |
| CC(C)(C)OC(=O)N1CCC[C@H]1C(=O)N1CCC(C(=O)NC(C)(C)C(=O)O)(c2ccc(Br)cc2)CC1 [1i] | > 175000 nM | – |
| CC(C)(C)OC(=O)N1CCC[C@H]1C(=O)N1CCC(C(=O)N[C@@H](Cc2c[nH]c3ccccc23)C(=O)O)(c2ccc(Br)cc2)CC1 [1j] | > 175000 nM | – |
| CC(C)(C)OC(=O)N1CCC[C@H]1C(=O)N1CCC(C(=O)N[C@@H](Cc2c[nH]cn2)C(=O)O)(c2ccc(Br)cc2)CC1 [1k] | > 175000 nM | – |
| CC(C)(C)OC(=O)N1CCC[C@H]1C(=O)N1CCC(C(=O)N[C@H](C(=O)O)C2CCCC2)(c2ccc(Br)cc2)CC1 [1l] | 815 nM | – |
| CC(C)(C)OC(=O)N1CCC[C@H]1C(=O)N1CCC(C(=O)N[C@@H](CC2CC2)C(=O)O)(c2ccc(Br)cc2)CC1 [1m] | 718 nM | – |
| CC(C)(C)OC(=O)N1CCC[C@H]1C(=O)N1CCC(C(=O)N[C@@H](CC2CC2)C(=O)O)(c2ccc(C(F)(F)F)cc2)CC1 [1n] | – | IC50 (PICK1; IC50 (potency)): 130 nM |
| O=C(O)[C@H](CC1CC1)NC(=O)C1(c2ccc(Br)cc2)CCN(Cc2ccccc2C(F)(F)F)CC1 [1o] | 573 nM | selectivity for PICK1 over GRIP (GRIP [1]): selectivity; selectivity for PICK1 over Shank PDZ domain (Shank3 PDZ): selectivity |
| O=C(O)[C@H](CC1CC1)NC(=O)C1(c2ccc(Br)cc2)CCN(Cc2cccc(C(F)(F)F)c2)CC1 [1p] | 2560 nM | – |
| O=C(O)[C@H](CC1CC1)NC(=O)C1(c2ccc(Br)cc2)CCN(Cc2ccc(C(F)(F)F)cc2)CC1 [1q] | 5930 nM | – |
| CC(c1ccccc1C(F)(F)F)N1CCC(C(=O)N[C@@H](CC2CC2)C(=O)O)(c2ccc(Br)cc2)CC1 (some centres unmarked) [1r] | 1230 nM | induction of long term depression (LTD) (CA1 pyramidal neurons): LTD was not induced; solubility (Solubility comparison): better than compound 1z |
| O=C(O)[C@H](CC1CC1)NC(=O)C1(c2ccc(C(F)(F)F)cc2)CCN(c2ccccc2)CC1 [1s] | 2040 nM | – |
| O=C(O)[C@H](CC1CC1)NC(=O)C1(c2ccc(C(F)(F)F)cc2)CCN(c2cccc3ccccc23)CC1 [1t] | 8470 nM | – |
| O=C(O)[C@H](CC1CC1)NC(=O)C1(c2ccc(C(F)(F)F)cc2)CCN(c2cccc3cccnc23)CC1 [1u] | 4600 nM | – |
| Cc1cc(N2CCC(C(=O)N[C@@H](CC3CC3)C(=O)O)(c3ccc(C(F)(F)F)cc3)CC2)c2ncccc2c1 [1v] | 348 nM | fold more potent than the unsubstituted quinoline (PICK1): 10 fold |
| CCc1cc(N2CCC(C(=O)N[C@@H](CC3CC3)C(=O)O)(c3ccc(C(F)(F)F)cc3)CC2)c2ncccc2c1 [1w] | 269 nM | – |
| CC(C)c1cc(N2CCC(C(=O)N[C@@H](CC3CC3)C(=O)O)(c3ccc(C(F)(F)F)cc3)CC2)c2ncccc2c1 [1x] | 508 nM | – |
| O=C(O)[C@H](CC1CC1)NC(=O)C1(c2ccc(C(F)(F)F)cc2)CCN(c2cc(F)cc3cccnc23)CC1 [1y] | 626 nM | – |
| O=C(O)[C@H](CC1CC1)NC(=O)C1(c2ccc(C(F)(F)F)cc2)CCN(c2cc(Cl)cc3cccnc23)CC1 [1z] | – | selectivity for PICK1 over GRIP (GRIP [2]): selectivity; exposure in the brain (brain penetration) (PK properties in rats): no exposure in the brain; AUC (PK properties in rats; [5]): 2920 ng·h/mL; Cmax (PK properties in rats; [5]): 1360 ng/mL; surface GluA2 levels relative to untreated neurons ([3]; 3 μM, 24 hours, cultured hippocampal neurons): increased; total amount of GluA2 in the cytoplasm and on the cell surface ([3]; inhibitor treatment, data not shown): unchanged; selectivity for PICK1 over PSD95 (PSD95 PDZ 1-2): selectivity; effect on Aβ42-induced increase in intracellular calcium concentration [4]: attenuated; IC50 (PICK1; IC50 (potency)): 69 nM; fold more potent than the unsubstituted quinoline (PICK1): 67 fold |
